“And” between values parts separate entries of the source, which are not always exact repeats. Identical values can stand only once.
Assay: xn = mol fraction of the nth substance listed

COc1ccccc1 + ClCCCl
viscosity [mPa·s]
Conditions | 298.15 K | 303.15 K | 308.15 K | 313.15 K
101 kPa, x1 = 0.0971 | 0.8095 | 0.7615 | 0.7135 | 0.6712
101 kPa, x1 = 0.1961 | 0.8125 | 0.7644 | 0.719 | 0.6736
101 kPa, x1 = 0.2958 | 0.8228 | 0.7712 | 0.7246 | 0.6785
101 kPa, x1 = 0.3963 | 0.8354 | 0.7823 | 0.7333 | 0.6881
101 kPa, x1 = 0.4918 | 0.8519 | 0.7983 | 0.7466 | 0.7004
101 kPa, x1 = 0.5946 | 0.8754 | 0.8183 | 0.7639 | 0.715
101 kPa, x1 = 0.6933 | 0.9012 | 0.8399 | 0.7821 | 0.7319
101 kPa, x1 = 0.7944 | 0.9299 | 0.8693 | 0.8076 | 0.7519
101 kPa, x1 = 0.8972 | 0.9672 | 0.8983 | 0.834 | 0.7759
101.3 kPa, x1 = 0.0479 | – | 0.708 | – | –
101.3 kPa, x1 = 0.2944 | – | 0.726 | – | –
101.3 kPa, x1 = 0.3833 | – | 0.74 | – | –
101.3 kPa, x1 = 0.5479 | – | 0.776 | – | –
101.3 kPa, x1 = 0.6192 | – | 0.785 | – | –
101.3 kPa, x1 = 0.6717 | – | 0.797 | – | –
101.3 kPa, x1 = 0.9751 | – | 0.896 | – | –

c1ccc2ccccc2c1 + Clc1ccccc1
viscosity [mPa·s], 101 kPa
Conditions | 308.15 K | 313.15 K | 318.15 K | 323.15 K
x1 = 0.3525 | 0.962 | 0.9041 | 0.8436 | 0.7981
x1 = 0.4003 | 1.011 | 0.945 | 0.887 | 0.832

c1ccc2ccccc2c1 + Nc1ccccc1
viscosity [mPa·s]
Conditions | 308.15 K | 313.15 K | 318.15 K | 323.15 K
101 kPa, x1 = 0.2092 | 2.365 | 2.092 | 1.868 | 1.687
101 kPa, x1 = 0.3036 | 2.224 | 1.988 | 1.783 | 1.616
101.33 kPa, x1 = 0.209 | 2.365 | 2.092 | 1.868 | 1.687
101.33 kPa, x1 = 0.2092 | 2.365 | – | – | –
101.33 kPa, x1 = 0.2497 | 2.291 | – | – | –
101.33 kPa, x1 = 0.3 | 2.224 | 1.988 | 1.783 | 1.616
101.33 kPa, x1 = 0.3036 | 2.224 | – | – | –

CC(=O)C(=O)[O-].[Na+] + O
viscosity [mPa·s], 101 kPa
Conditions | x1 = 0.00036 | x1 = 0.000648 | x1 = 0.000936 | x1 = 0.00137 | x1 = 0.00151 | x1 = 0.0018
298.15 K | 0.8972 | 0.9038 | 0.9104 | 0.9173 | 0.9206 | 0.9267
303.15 K | 0.8044 | 0.811 | 0.8176 | 0.826 | 0.8308 | 0.8369
308.15 K | 0.7257 | 0.7308 | 0.7375 | 0.7474 | 0.7507 | 0.7569
313.15 K | 0.6602 | 0.6669 | 0.6735 | 0.682 | 0.6868 | 0.6931

CC(C)CC(=O)O + O
viscosity [mPa·s], 101.33 kPa
Conditions | 293.15 K | 313.15 K
x1 = 0.0036 | 1.106 | 0.724
x1 = 0.0073 | 1.161 | 0.742

CC1COC(=O)O1 (stereo not drawn) + O
298.15 K, 101 kPa
Conditions | viscosity [mPa·s]
x1 = 0.0025 | 0.9114
x1 = 0.005 | 0.9267
x1 = 0.01 | 0.959
x1 = 0.02 | 1.028
x1 = 0.025 | 1.064
x1 = 0.0307 | 1.099

CCC(N)(CO)CO + O
viscosity [mPa·s], 101.33 kPa
Conditions | x1 = 0.0364 | x1 = 0.0916 | x1 = 0.185 | x1 = 0.261 | x1 = 0.377
303.15 K | 1.765 | 4.993 | 21.96 | 56.54 | 199.2
313.15 K | 1.356 | 3.435 | 12.89 | 30.13 | 85.62
323.15 K | 1.053 | 2.504 | 8.22 | 17.36 | 44.4

CCCCn1cc[n+](C)c1.O=S(=O)([O-])C(F)(F)F + O
101 kPa
Conditions | viscosity [mPa·s]
308.15 K, x2 = 0.3999 | 19.95
323.15 K, x2 = 0.901 | 3.005

CCOCCn1cc[n+](C)c1.C[C@@H](O)[C@H](N)C(=O)[O-] + O
Conditions | viscosity [mPa·s]
298.15 K, 100 kPa, x2 = 0.492 | 991.4

CC[C@H](C)[C@H](N)C(=O)O + O
viscosity, 101 kPa
Conditions | 293.15 K | 298.15 K | 303.15 K | 308.15 K | 313.15 K | 318.15 K
x1 = 0.00045 | 1.008 mPa·s | 0.896 mPa·s and 0.896 mPa·s | 0.8028 mPa·s and 0.8027 mPa·s | 0.7244 mPa·s and 0.7243 mPa·s | 0.6578 mPa·s and 0.6577 mPa·s | 0.6022 mPa·s and 0.602 mPa·s
x1 = 0.0009 | 1.019 mPa·s | 0.9057 mPa·s and 0.9059 mPa·s | 0.8118 mPa·s and 0.8118 mPa·s | 0.733 mPa·s and 0.7328 mPa·s | 0.6658 mPa·s and 0.6657 mPa·s | 0.6098 mPa·s and 0.6096 mPa·s
x1 = 0.00135 | 1.03 mPa·s | 0.9164 mPa·s and 0.9165 mPa·s | 0.8217 mPa·s and 0.8217 mPa·s | 0.7422 mPa·s and 0.742 mPa·s | 0.6745 mPa·s and 0.6744 mPa·s | 0.6181 mPa·s and 0.6178 mPa·s
x1 = 0.0018 | 1.042 mPa·s | 0.9273 mPa·s and 0.9275 mPa·s | 0.8319 mPa·s and 0.8318 mPa·s | 0.7516 mPa·s and 0.7515 mPa·s | 0.6834 mPa·s and 0.6832 mPa·s | 0.6265 mPa·s and 0.6261 mPa·s
x1 = 0.002245 | 1.054 mPa·s | 0.9386 mPa·s and 0.9387 mPa·s | 0.8423 mPa·s and 0.8422 mPa·s | 0.7613 mPa·s and 0.7612 mPa·s | 0.6925 mPa·s and 0.6923 mPa·s | 0.6351 mPa·s and 0.6347 mPa·s
x1 = 0.002695 | 1.067 mPa·s | 0.9502 mPa·s and 0.9502 mPa·s | 0.8531 mPa·s and 0.853 mPa·s | 0.7714 mPa·s and 0.7713 mPa·s | 0.702 mPa·s and 0.7018 mPa·s | 0.6438 mPa·s and 0.6434 mPa·s

— the CheMixHub viscosity set
